The results in this text go back to PMC11649397, “The study of halogen effect on the reactivity of the serine-targeting covalent warheads” (Frontiers in Chemistry, 2024).

Molecules are shown by their SMILES. Read-outs that look alike come from different tables or passages of the source.

In assay [1] the target is T1, hCES2A (Homo sapiens, UniProt O00748).
T1 sequence (O00748 27-559): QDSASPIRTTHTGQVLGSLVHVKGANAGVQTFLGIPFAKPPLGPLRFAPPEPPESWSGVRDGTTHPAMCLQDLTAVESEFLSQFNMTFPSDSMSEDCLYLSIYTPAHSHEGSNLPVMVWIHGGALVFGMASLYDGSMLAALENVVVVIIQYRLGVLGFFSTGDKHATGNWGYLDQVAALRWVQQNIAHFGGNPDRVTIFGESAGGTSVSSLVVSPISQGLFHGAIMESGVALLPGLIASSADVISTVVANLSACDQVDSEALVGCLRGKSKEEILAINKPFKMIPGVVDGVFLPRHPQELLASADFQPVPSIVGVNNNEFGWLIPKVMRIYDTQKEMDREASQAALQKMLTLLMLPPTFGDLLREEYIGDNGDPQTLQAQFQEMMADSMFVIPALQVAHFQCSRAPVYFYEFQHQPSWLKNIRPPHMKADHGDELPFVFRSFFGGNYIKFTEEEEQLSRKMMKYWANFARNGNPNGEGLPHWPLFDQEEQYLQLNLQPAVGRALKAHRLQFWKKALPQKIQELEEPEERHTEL
Briefly: Inhibition assay on hCES2A (fluorescent substrate FD). The format is biochemical. To be noted: for selective inhibitory activity on hCES2A: 10 μM, selectivity screening; for IC50: mean ± SD, n = 3. How it is done: 1. Detailed experimental, materials, and methods
The household library of covalent fragments including D and F was from Organic Chemistry […]
Fig. S1. Partial fragment molecules of a household library targeting to serine. […]
Inhibition assay on hCES2A
Human carboxylesterase 2 (hCES2A) inhibition assays were conducted using FD, a known fluorescent substrate. 3 Briefly, hCES2A (0.4 μg/mL, final concentration) was preincubated with analytes/DMSO (as a control group) in PBS (pH 7.4) at 37 °C for 3 min. This was followed by adding the substrate FD (4 μM, final concentration) in the incubation mixture and allowing it to react for 30 min. The fluorescent signals (excitation/emission, 480 nm/525 nm) were continuously recorded by a microplate reader (SpectraMax iD3Molecular Devices, Austria). […]

Assay [2] has as its target T2, Notum (Homo sapiens, UniProt Q6P988).
T2 sequence (Q6P988 20-496): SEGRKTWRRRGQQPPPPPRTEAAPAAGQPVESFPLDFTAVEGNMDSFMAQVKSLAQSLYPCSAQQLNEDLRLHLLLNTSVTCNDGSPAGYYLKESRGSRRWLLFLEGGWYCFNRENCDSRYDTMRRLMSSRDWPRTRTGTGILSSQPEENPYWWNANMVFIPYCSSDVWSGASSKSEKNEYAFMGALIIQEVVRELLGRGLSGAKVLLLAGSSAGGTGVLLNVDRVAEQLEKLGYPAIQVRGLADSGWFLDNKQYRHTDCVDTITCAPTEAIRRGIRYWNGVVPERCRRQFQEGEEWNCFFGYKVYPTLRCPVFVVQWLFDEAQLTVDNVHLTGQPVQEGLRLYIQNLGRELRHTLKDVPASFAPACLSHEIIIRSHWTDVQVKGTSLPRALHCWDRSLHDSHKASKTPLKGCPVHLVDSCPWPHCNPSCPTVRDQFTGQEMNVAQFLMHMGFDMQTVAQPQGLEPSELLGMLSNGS
Briefly: Inhibition assay on Notum (substrate OPTS). The assay is classed as biochemical. The note with it: 10 μM, selectivity screening. How it is done:
fluorogenic probe. 4 Briefly, the incubation mixtures (0.1 mL) contained Tris-HCl buffer, hPL solution (0.25 μg/mL, final concentration), porcine bile salt (0.1 mg/mL, final concentration) and each inhibitor (with different concentrations). After preincubated at 37 °C for 3 min, DDAO-ol (20 µM, final concentration) was added to initial reaction. The fluorescent signals of hydrolytic product were quantified by using the microplate reader (Spectra Max M4, Austria), with the wavelength of 600 nm and 660 nm for excitation and emission, respectively.
Inhibition assay on Notum
OPTS, a known fluorogenic probe, was used as the substrate to assess the residual activities of Notum in the presence of each tested compound. […] After preincubated at 37 °C for 1 min, OPTS was added to initiate the hydrolytic reaction and the multi-mode microplate reader (SpectraMax iD3, Molecular Devices, Austria) was used to analyze the florescence signals of the […]
The F-3, F-4, F-10-bound peptides was analysed using the nanoLC-MS/MS system, respectively.6 The purified hCES1A (150 μg, final content) was co-incubated with the small molecule inhibitor F-3/ F-4/ F-10 (100 μM, final concentration) at 4 °C and 25 °C, respectively, for 4h. […]

Consider `O=C(c1ccccc1)C(F)(F)F` [F, 2,2,2-trifluoroacetophenone], for which, in assay [1], the “selective inhibitory activity on hCES2A” value is on record as “decent selective inhibitory activities”. Also, the IC50 in assay [1] (3 min incubation, read-out: hCES2A IC50 3 min) is 0.16 ± 0.0184 µM; in assay [1] (33 min incubation, read-out: hCES2A IC50 33 min) it was 0.336 ± 0.0372 µM. In addition, in assay [1] (3 min vs 33 min incubation), the “time-dependent inhibition against hCES2A” value is listed as “no significant time-dependent inhibition”. For the same molecule, in assay [2], the “response to Notum” value is reported as “no potent responses”.
With `O=S(=O)(F)c1ccc(Br)cc1` [D, 4-bromobenzenesulfonyl fluoride], the “selective inhibitory activity on hCES2A” value in assay [1] is recorded as “decent selective inhibitory activities”. Besides, the “response to Notum” value in assay [2] was “no potent responses”.

A word on the IC50: it is the concentration that gives 50% inhibition.
